These results are taken from patent US7812014B2, “Bicyclic 6-alkylidene-penems as β-lactamase inhibitors” (priority 2002, dated 2010).

For data set [1], the target named is class A β-lactamase TEM-1 (Escherichia coli, UniProt P62593). In words: IC50 determination, β-lactamase inhibition (nitrocefin, spectrophotometric). The following applies: enzyme 4.3 nM; 10 minutes preincubation at 25° C.; nitrocefin 50 μg/ml; pH 7.0. It is filed as biochemical, E. coli. On the procedure: (§1) IC50 Determination for the Penem Inhibitor
class A β-lactamase TEM-1, sequence (P62593 24-286 limits assumed): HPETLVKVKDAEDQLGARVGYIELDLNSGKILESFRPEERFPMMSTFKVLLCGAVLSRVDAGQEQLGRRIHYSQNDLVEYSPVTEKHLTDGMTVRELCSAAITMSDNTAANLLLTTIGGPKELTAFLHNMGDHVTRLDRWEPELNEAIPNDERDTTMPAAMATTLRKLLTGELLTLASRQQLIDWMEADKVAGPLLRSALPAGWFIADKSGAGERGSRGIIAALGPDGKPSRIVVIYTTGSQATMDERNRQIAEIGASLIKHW
(§2) β-Lactamase inhibitory activity of the penem inhibitors was determined spectrophotometrically as described by Bush et al., [Bush, K., Macalintal, C., Rasmussen, B. A., Lee, V. and Yang, Y. Antimicrobial Agents and Chemotherapy 1993, 37, 851]. Homogeneously purified class A β-lactamases TEM-1 from E. coli and Imi-1 from Enterobacter cloacae, class B enzyme CcrA from Bacteroides fragilis and class C enzyme AmpC from Enterobacter cloaca were employed in the assay. The enzyme concentrations for TEM-1, Imi-1, CcrA and AmpC were 4.3, 7.1, 1.2 and 2.1 nM, respectively. A wide range of inhibitor concentrations were prepared in 50 mM PO4, pH 7.0 to include the possible IC50 values. The substrate used to initiate the enzyme reaction was nitrocefin at 50 μg/ml in the same buffer as the inhibitor. Initially the enzyme and inhibitor (20 μl each) were preincubated for 10 minutes at 25° C. prior to the addition of 160 μl volume of nitrocefin. Initial rates of hydrolysis were monitored for 5 minutes at 495 nm using a Molecular Devices Spectra Max 250 with kinetic protocol of SoftMax Program. Readings from the Spectra Max 250 were exported and transferred to Microsoft Excel. The percent of inhibition of each inhibitor concentration was calculated based on the control enzyme activity. The inhibitor concentration that caused a 50% reduction in the enzymatic activity (IC50) was determined graphically.

For data set [2], the target named is class A β-lactamase Imi-1 (Enterobacter cloacae, UniProt Q46991). Described as above. It is filed as biochemical. On the procedure: as §1, §2
class A β-lactamase Imi-1, sequence (Q46991 28-292): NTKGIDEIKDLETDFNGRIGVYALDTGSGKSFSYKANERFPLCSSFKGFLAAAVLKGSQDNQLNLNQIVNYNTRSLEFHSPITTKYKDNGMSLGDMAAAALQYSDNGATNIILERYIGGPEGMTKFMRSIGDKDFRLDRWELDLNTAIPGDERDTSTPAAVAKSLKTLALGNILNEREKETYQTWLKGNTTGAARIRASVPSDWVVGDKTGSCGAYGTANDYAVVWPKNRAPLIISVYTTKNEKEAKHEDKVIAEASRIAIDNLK
In a further data set the target is class B enzyme CcrA (Bacteroides fragilis, UniProt P25910). The data set is described as above. It is filed as biochemical. The procedure:
as §1, §2

In a further data set the target is class C enzyme AmpC (Enterobacter cloacae, UniProt P05364). Put plainly: biochemical. More on the design: species or system Enterobacter cloaca. The procedure: as §1, §2
class C enzyme AmpC, sequence (P05364 21-381): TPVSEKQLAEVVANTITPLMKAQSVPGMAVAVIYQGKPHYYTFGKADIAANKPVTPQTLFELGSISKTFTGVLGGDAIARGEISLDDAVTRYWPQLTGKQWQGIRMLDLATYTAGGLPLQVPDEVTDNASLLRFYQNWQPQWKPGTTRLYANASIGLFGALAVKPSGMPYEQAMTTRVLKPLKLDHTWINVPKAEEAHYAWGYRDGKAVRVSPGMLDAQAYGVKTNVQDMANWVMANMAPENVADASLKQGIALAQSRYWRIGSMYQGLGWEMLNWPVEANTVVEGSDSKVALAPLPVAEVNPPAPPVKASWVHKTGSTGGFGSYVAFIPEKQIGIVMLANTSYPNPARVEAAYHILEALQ
Data set [3] has as its system Clinical isolates that have been adapted to cause infection in mice. Put plainly: In vivo antibacterial protection, 7 day survival of infected mice. More on the design: species or system mice strain CD-1. The following applies: Mus musculus, 168 h. From the text: In Vivo Antibacterial Protection
Female mice strain CD-1, approximately 18-22 grams, were received from Charles River Laboratories and quarantined 7 days prior to use. In addition, mice may be rendered neutropenic using cytoxan.
Clinical isolates that have been adapted to cause infection in mice, are used in the experiment, including infections with strains of E. coli, K. pneumoniae, M. morganii, E. cloacae, S. marcescens, C. freundii, staphylococci, streptococci, P. aeruginosa and N. gonorrhoeae.
Mice are challenged by injecting 0.5 ml intraperitoneally or 0.05 ml intranasally of a predetermined bacterial inoculum suspended in broth, saline or hog gastric mucin (supplemented with dried bovine hemoglobin for N. gonorrhoeae). […] Antibacterial doses (dose concentration prepared by two fold serial dilutions of the antibiotic) are dissolved or suspended in 0.2% aqueous agar or methocel, phosphate buffered saline or an adjuvant are administered orally, subcutaneously or intravenously in the following manner: • a) Orally or subcutaneously: Dose volume of 0.5 ml administered ½ hr after infection. A second dose may be administered 3 hr. after infection for treatment of infections with more virulent organisms. • b) Intravenously: Dose volume of 0.2 ml, administered ½ hr. after infection. For the treatment of infections with more virulent organisms, more doses, up to 48 hr may be administered. (Intravenous dosing will not exceed 3 doses/24 hr period.) • c) Oral pretreatment: Under special circumstances, the pH of the stomach needs to be adjusted in order to increase the gastric stability of the antibiotic. For this purpose, 0.5 ml of phosphate buffered saline (pH7.8, 0.06M) (or specific approved adjuvant) is administered orally ½ hr after infection, followed 5 minutes later by 0.5 ml of antibiotic (also orally) contained in phosphate buffered saline (pH7.8, 0.06M). Animal Species
A detailed explanation as to the number of animals needed for the determination of in vivo efficacy follows: • A) Novel antibiotics are tested at 5 different dose levels with 5 mice per dose level at each of three routes of administration (oral, subcutaneous and intravenous). […] This would require 25 mice/route with 3 routes/antibiotic or 75 mice per novel compound tested. One to two novel antibiotics will be tested per experiment (75-150 mice) • B) The effectiveness of the new compound must be compared to that of a standard, or antibiotic of known effectiveness. Known or previously tested antibiotics are tested at 5 dose levels with 5 mice per dose level by a single route of administration, for a total of 25 mice/antibiotic. Usually 3-6 antibiotics will be tested per experiment. (75-150 mice). • C) Untreated controls—In each of the above tests, untreated animals are infected with 3 different concentrations of bacterial inoculum with 10 mice per concentration (30 mice total in each and every test). These untreated controls are used to determine and maintain the infection level between 10-100 LD50s as required for test to test comparison and validity. Determination of Protective Effects of Antibacterial Agents:
The protective effects of the antibacterial agent(s) are measured by the survival of the infected untreated as compared to the treated animals. […] A census of survivors is taken twice daily and at that time dead as well as moribund animals are removed. […] The test is performed three times on separate days to provide a statistically valid number of animals and to minimize variation in test results on a day to day and test to test basis.

Setting [4] is: enzyme 7.1 nM, 10 minutes preincubation at 25° C., nitrocefin 50 μg/ml, pH 7.0, read-out: IC50 (nM) Class A Imi.
[5] abbreviates: enzyme 1.2 nM, 10 minutes preincubation at 25° C., nitrocefin 50 μg/ml, pH 7.0, read-out: IC50 (nM) Class B Ccr.
Setting [6] is: enzyme 2.1 nM, 10 minutes preincubation at 25° C., nitrocefin 50 μg/ml, pH 7.0, read-out: IC50 (nM) Class C AmpC.
[7] abbreviates: Ratio of Piperacillin vs. Inhibitor 4:1, read-out: ED50.
[8] abbreviates: Ratio of Piperacillin vs. Inhibitor not given, read-out: ED50.

Structures can show the parent of a compound that is named as a salt. Where two headings read alike, the source gives them in different places.

class B enzyme CcrA, sequence (P25910 19-249): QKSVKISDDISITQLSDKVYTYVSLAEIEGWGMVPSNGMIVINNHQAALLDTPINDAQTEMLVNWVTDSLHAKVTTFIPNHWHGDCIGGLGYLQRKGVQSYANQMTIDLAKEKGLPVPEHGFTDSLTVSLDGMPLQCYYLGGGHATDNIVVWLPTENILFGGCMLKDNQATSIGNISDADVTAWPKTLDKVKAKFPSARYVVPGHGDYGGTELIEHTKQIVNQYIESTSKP

As a reminder, the IC50 is the midpoint of a concentration-inhibition curve. Usually ED50 stands for the dose at which the effect has come halfway, by size or by number of responders. As a reminder, the melting point is the temperature of the solid-liquid transition. As to `O=C(O)C1=CS[C@@H]2/C(=C\c3cc4c(s3)CCN(C(=O)Cc3ccccc3)C4)C(=O)N12` [Example 23], the melting point lay in the range of 166 to 169 °C. The half-maximal inhibitory concentration (IC50) in data set [1] was determined as 4.6 nM. The IC50 in data set [2] (setting [4]) was determined as 40 nM. Moreover, the 50% inhibitory concentration (IC50) on class B enzyme CcrA (setting [5]) was found to be 140 nM. Also, at class C enzyme AmpC (setting [6]), the IC50 turned out to be 7.8 nM. The ED50 in data set [3] (setting [7]) was 128 mg/kg.

As for `CN1Cc2nc(/C=C3/C(=O)N4C(C(=O)O)=CS[C@H]34)cn2CC1=O` (as salt: sodium) [Example 10, (5R),(6Z)-6-(7-Methyl-6-oxo-5,6,7,8-tetrahydro-imidazo[1,2-a]pyrazin-2-ylmethylene)-7-oxo-4-thia-1-aza-bicyclo[3.2.0]hept-2-ene-2-carboxylic acid sodium salt], the melting point is 115 to 117 °C (dec.).

In the case of `O=C(O)C1=CS[C@@H]2/C(=C\c3cc4c(s3)CCN(Cc3ccccc3)C4)C(=O)N12` [Example 1, (5R,6Z)-6-[(5-benzyl-4,5,6,7-tetrahydrothieno[3,2-c]pyridin-2-yl)methylene]-7oxo-4-thia-1-azabicyclo[3.2.0]hept-2-ene-2-carboxylic acid], the melting point came out at 198 °C. Also, it took 4.2 nM to reach half-maximal inhibition in data set [1] (IC50). Further, the IC50 in data set [2] (setting [4]) was found to be 2.1 nM. The IC50 at class B enzyme CcrA (setting [5]) is 260 nM. For the same compound, the IC50 at class C enzyme AmpC (setting [6]) was found to be 12 nM. The ED50 in data set [3] (Ratio of Piperacillin vs. Inhibitor 2:1, read-out: ED50) was in the range of 32 to 64 mg/kg.

As for `CN1CCc2sc(C=C3C(=O)N4C(C(=O)O)=CSC34)cc2C1` (stereo not shown) [Example 17, 6-(5-Methyl-4,5,6,7-tetrahydro-thieno[3,2-c]pyridin-2-ylmethylene)-7-oxo-4-thia-1-aza-bicyclo[3.2.0]hept-2-ene-2-carboxylic acid], the half-maximal inhibitory concentration (IC50) in data set [1] is 12 nM; in data set [2] (setting [4]), 24 nM; on class B enzyme CcrA (setting [5]), 28 nM; on class C enzyme AmpC (setting [6]), 26 nM. The ED50 in data set [3] (setting [7]) stood at 37.9 mg/kg.

As for `O=C([O-])C1=CS[C@@H]2/C(=C\c3cc4n(n3)CCSC4)C(=O)N12.[Na+]` [Example 11, (5R)(6Z)-6-(6,7-Dihydro-4H-pyrazolo[5,1-c][1,4]thiazin-2-ylmethylene)-7-oxo-4-thia-1-azabicyclo[3.2.0]hept-2-ene-2-carboxylic acid, sodium salt], the IC50 was 1 nM in data set [1], 18 nM in data set [2] (setting [4]), 61 nM on class B enzyme CcrA (setting [5]) and 1.2 nM against class C enzyme AmpC. The ED50 in data set [3] (setting [7]) was 13.9 mg/kg.

Compound `O=C(O)C1=CS[C@@H]2/C(=C\c3cc4c(s3)CCN(C(=O)c3cccnc3)C4)C(=O)N12` [Example 22] had a melting point of 195 °C. The IC50 in data set [1] was found to be 6.1 nM. Also, in data set [2] (setting [4]), the IC50 was determined as 42 nM. In addition, the IC50 at class B enzyme CcrA (setting [5]) turned out to be 110 nM. For the same compound, the IC50 on class C enzyme AmpC (setting [6]) is 11 nM. In addition, the ED50 in data set [3] (setting [7]) came out at 128 mg/kg.

Regarding `CC1(C)Cc2cc(/C=C3/C(=O)N4C(C(=O)[O-])=CS[C@H]34)nn2C1.[Na+]` [Example 26, (5R)(6Z)-6-(5,5-Dimethyl-4H-1,6a-diazapentalen-2-ylmethylene)-7-oxo-4-thia-1-azabicyclo[3.2.0]hept-2-ene-2-carboxylic acid, sodium salt], the IC50 came out at 0.73 nM in data set [1], 54 nM in data set [2] (setting [4]), 89 nM at class B enzyme CcrA (setting [5]) and 2.3 nM at class C enzyme AmpC. Also, the ED50 in data set [3] (setting [8]) is 30 mg/kg.

`O=C(O)C1=CS[C@@H]2/C(=C\c3cn4c(n3)CNCC4)C(=O)N12` [Example 3, (5R),(6Z)-7-Oxo-6-(5,6,7,8-tetrahydroimidazo[1,2-a]pyrazin-2-ylmethylene)-4-thia-1-azabicyclo[3.2.0]hept-2-ene-2-carboxylic acid, sodium salt]: the IC50 in data set [1] amounted to 5.4 nM; in data set [2] it was 28 nM; against class B enzyme CcrA, 320 nM; on class C enzyme AmpC (setting [6]), 6.2 nM. The ED50 in data set [3] (setting [7]) was in the range of 16 to 32 mg/kg.

As for `O=C(O)C1=CSC2C(=Cc3cn4c(n3)CCCCC4)C(=O)N12` (stereo not shown) [Example 19, 7-Oxo-6-(6,7,8,9-tetrahydro-5H-imidazo[1,2-a]azepin-2-ylmethylene)-4-thia-1-aza-bicyclo[3.2.0]hept-2-ene-2-carboxylic acid], the IC50 amounted to 4.8 nM in data set [1], 2700 nM in data set [2] (setting [4]), 170 nM at class B enzyme CcrA (setting [5]) and 4.6 nM on class C enzyme AmpC (setting [6]). Besides, in data set [3] (setting [7]), the ED50 came out at 59.2 mg/kg.

Consider `O=C([O-])C1=CS[C@@H]2/C(=C\c3cn4c(n3)CSC4)C(=O)N12.[Na+]` [Example 13, (5R)(6Z)-6-(7H-Imidazo[1,2-c]thiazol-2-ylmethylene)-7-oxo-4-thia-1-azabicyclo[3.2.0]hept-2-ene-2-carboxylic acid, sodium salt], for which the IC50 was determined as 2.9 nM in data set [1], 16 nM in data set [2] (setting [4]), 160 nM on class B enzyme CcrA (setting [5]) and 3.1 nM on class C enzyme AmpC. For the same compound, the ED50 in data set [3] (setting [8]) was 18 mg/kg.
